Source: the supplement of paper PMC10307832

How the values were obtained:
Assay in all cases: relative viability (nuclei count vs DMSO), 5 days (fraction); higher = more cells survive
[1] = compound: Cn1cncc1[C@@](N)(c1ccc(Cl)cc1)c1ccc2c(c1)c(-c1cccc(Cl)c1)cc(=O)n2C [Tipifarnib] + Cc1cc(Nc2cc(N3CCN(C)CC3)nc(Sc3ccc(NC(=O)C4CC4)cc3)n2)n[nH]1 [Tozasertib] (partner 0.1 µM)
Method in brief: (§1)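 The day after seeding in 1536-well plates, lung cancer cell lines were treated by pin tool with a single drug, or with a fixed anchor-drug dose together with five library-drug doses (not always all listed) in √10 steps. After 5 days, a combined fix-and-stain solution (final 0.05% Triton X-100, 1% formaldehyde, 1 ug/ml Hoechst) was added. Nuclei counted on 4× images gave relative viability as treated counts over vehicle counts, reported as the median of duplicate plates.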

[2] = compound: Cn1cncc1[C@@](N)(c1ccc(Cl)cc1)c1ccc2c(c1)c(-c1cccc(Cl)c1)cc(=O)n2C [Tipifarnib] + CC1(C)CCC(c2ccc(Cl)cc2)=C(CN2CCN(c3ccc(C(=O)NS(=O)(=O)c4ccc(N[C@H](CCN5CCOCC5)CSc5ccccc5)c(S(=O)(=O)C(F)(F)F)c4)cc3)CC2)C1 [Navitoclax] (partner 0.5 µM)
Method in brief: as §1

[3] = compound: Cn1cncc1[C@@](N)(c1ccc(Cl)cc1)c1ccc2c(c1)c(-c1cccc(Cl)c1)cc(=O)n2C [Tipifarnib] + O=C(CCCCCCC(=O)Nc1ccccc1)NO [Vorinostat] (partner 1 µM)
Method in brief: as §1

[4] = compound: Cn1cncc1[C@@](N)(c1ccc(Cl)cc1)c1ccc2c(c1)c(-c1cccc(Cl)c1)cc(=O)n2C [Tipifarnib] + C[C@@H](Oc1cc(-c2cnn(C3CCNCC3)c2)cnc1N)c1c(Cl)ccc(F)c1Cl [Crizotinib] (partner 1 µM)
Method in brief: as §1

Row | Cell Line | relative viability ([1]; first compound 0.01 µM) | relative viability ([1]; first compound 0.03162 µM) | relative viability ([1]; first compound 0.1 µM) | relative viability ([1]; first compound 0.3162 µM) | relative viability ([1]; first compound 1 µM) | relative viability ([2]; first compound 0.01 µM) | relative viability ([2]; first compound 0.03162 µM) | relative viability ([2]; first compound 0.1 µM) | relative viability ([2]; first compound 0.3162 µM) | relative viability ([2]; first compound 1 µM) | relative viability ([3]; first compound 0.01 µM) | relative viability ([3]; first compound 0.03162 µM) | relative viability ([3]; first compound 0.1 µM) | relative viability ([3]; first compound 0.3162 µM) | relative viability ([3]; first compound 1 µM) | relative viability ([4]; first compound 0.01 µM) | relative viability ([4]; first compound 0.03162 µM) | relative viability ([4]; first compound 0.1 µM) | relative viability ([4]; first compound 0.3162 µM) | relative viability ([4]; first compound 1 µM)
1 | COR-L 105 | 0.333 | 0.356 | 0.281 | 0.305 | 0.294 | 0.874 | 0.578 | 0.739 | 0.576 | 0.559 | 0.982 | 0.75 | 0.605 | 0.504 | 0.478 | 0.538 | 0.392 | 0.383 | 0.407 | 0.317
2 | LK-2 | 0.158 | 0.173 | 0.189 | 0.157 | 0.162 | 1.08 | 0.65 | 0.7 | 0.421 | 0.373 | 0.262 | 0.237 | 0.244 | 0.193 | 0.168 | 0.231 | 0.217 | 0.238 | 0.209 | 0.222
3 | NCI-H727 | 0.809 | 0.598 | 0.624 | 0.608 | 0.444 | 0.622 | 0.53 | 0.421 | 0.41 | 0.277 | 1.15 | 1.22 | 1.18 | 1.32 | 0.91 | 0.958 | 0.838 | 0.746 | 0.695 | 0.675
4 | RERF-LC-KJ | 0.623 | 0.435 | 0.454 | 0.325 | 0.334 | 1.14 | 0.931 | 0.61 | 0.467 | 0.46 | 0.652 | 0.652 | 0.544 | 0.324 | 0.224 | 0.794 | 0.847 | 0.754 | 0.633 | 0.713
5 | NCI-H2023 | 0.251 | 0.289 | 0.217 | 0.182 | 0.215 | 1.01 | 0.773 | 0.68 | 0.457 | 0.47 | 0.598 | 0.366 | 0.289 | 0.186 | 0.137 | 0.491 | 0.495 | 0.302 | 0.27 | 0.333
6 | NCI-H322M | 0.55 | 0.492 | 0.511 | 0.417 | 0.46 | 1.18 | 1.2 | 1.31 | 0.971 | 1.19 | 0.869 | 0.991 | 0.813 | 0.863 | 0.725 | 0.874 | 0.854 | 0.79 | 0.463 | 0.587
7 | NCI-H1666 | 0.593 | 0.507 | 0.526 | 0.447 | 0.517 | 0.853 | 0.758 | 0.727 | 0.644 | 0.637 | 1.05 | 0.874 | 1.02 | 0.883 | 0.878 | 0.958 | 0.816 | 0.761 | 0.626 | 0.843
8 | NCI-H1648 | 0.368 | 0.479 | 0.285 | 0.483 | 0.352 | – | – | – | – | – | 0.356 | 0.394 | 0.419 | 0.384 | 0.372 | – | – | – | – | –
9 | NCI-H2087 | 0.245 | 0.164 | 0.164 | 0.132 | 0.132 | 0.918 | 0.559 | 0.407 | 0.411 | 0.467 | 0.668 | 0.363 | 0.292 | 0.248 | 0.222 | 0.529 | 0.534 | 0.268 | 0.438 | 0.377
10 | LU99A | 0.261 | 0.249 | 0.223 | 0.232 | 0.223 | 0.668 | 0.618 | 0.488 | 0.455 | 0.356 | 0.389 | 0.385 | 0.327 | 0.271 | 0.277 | 0.5 | 0.407 | 0.353 | 0.337 | 0.34
11 | HCC-366 | 0.091 | 0.0658 | 0.0515 | 0.0779 | 0.0476 | 1.14 | 0.762 | 0.751 | 0.483 | 0.188 | 0.249 | 0.145 | 0.102 | 0.067 | 0.0373 | 0.695 | 0.389 | 0.151 | 0.17 | 0.034
12 | EKVX | 0.447 | 0.331 | 0.397 | 0.348 | 0.297 | 1.01 | 0.861 | 0.841 | 0.744 | 0.49 | 0.76 | 0.634 | 0.549 | 0.439 | 0.53 | 0.932 | 0.936 | 0.733 | 0.618 | 0.581
13 | NCI-H522 | 0.517 | 0.564 | 0.525 | 0.542 | 0.566 | – | – | – | – | – | 0.908 | 0.761 | 0.835 | 0.776 | 0.806 | – | – | – | – | –
14 | NCI-H1755 | 0.741 | 0.584 | 0.639 | 0.518 | 0.569 | 1.02 | 0.971 | 0.968 | 0.776 | 0.851 | 0.75 | 0.764 | 0.781 | 0.739 | 0.596 | 0.83 | 0.79 | 0.818 | 0.742 | 0.688
15 | NCI-H647 | 0.21 | 0.126 | 0.178 | 0.101 | 0.14 | 0.983 | 0.813 | 0.822 | 0.397 | 0.37 | 0.321 | 0.326 | 0.352 | 0.157 | 0.13 | 0.76 | 0.618 | 0.515 | 0.367 | 0.521
16 | LC-2-ad | 0.509 | 0.37 | 0.415 | 0.407 | 0.393 | 0.413 | 0.296 | 0.258 | 0.216 | 0.201 | 0.634 | 0.505 | 0.42 | 0.336 | 0.305 | 0.399 | 0.391 | 0.382 | 0.349 | 0.35
17 | NCI-H1793 | 0.286 | 0.284 | 0.248 | 0.247 | 0.265 | 0.409 | 0.481 | 0.441 | 0.373 | 0.353 | 0.635 | 0.643 | 0.737 | 0.404 | 0.292 | – | – | – | – | –
